Laboratory results from patent US4855445A, “Substituted-8-alkenyl-1,3,4,9-tetrahydropyrano[3,4-b]indole-1-acetic acids” (American Home Products Corporation, priority 1987, dated 1989).
Where a name gives a salt, the structure may show the parent alone.

Columns and labels:
rats = assay: Preventative Adjuvant Edema; type: in vivo, Male Sprague Dawley rats; details: p.o., dosed days 0, 1 and 2, edema volume day 3
Procedure: This test is a primary screen for anti-inflammatory drugs.
Male Sprague Dawley rats (180-200 g) are used. The animals have free access to water but food is withdrawn 18 hours before testing.
Drug Preparations and Adminstration:
Freund's complete adjuvant is prepared by suspending 5 mg of killed and dried Mycobacterium butyricum (Difco) in 1 mL mineral oil. The test compounds are dissolved, or suspended in 0.5% Tween 80 in distilled water according to their solubility. […]
The method is essentially that described by Wax et al, J. Pharmacol. Exp. Ther., 192, 166-171 (1975). Groups of rats are injected intradermally in the left hind paw with 0.1 mL of Freund's complete adjuvant. The test compound or vehicle is administered immediately before the adjuvant, 24 hours and 48 hours after the adjuvant (days 0, 1 and 2). The injected hind paw volume is measured before the injection of adjuvant and 24 hrs. after the last drug administration (day 3) by means of a plethysmometer (Buxco Electronics Inc.). The difference between the hind paw volume on day 0 and day 3 represents the edema volume. […]
The mean edema volume (expressed as mL±SEM) is calculated for each group and the percentage protection conferred by the drug is calculated: [formula] where c is the mean edema volume for the vehicle-treated (0.5% Tween 80 in distilled water) controls and t is the mean edema volume for the drug treated group.

mice = assay: Drug Effects on Phenylbenzoquinone-induced Writhing in Mice; type: in vivo, Male Swiss albino mice; details: p.o., PBQ i.p. 60 minutes after dosing, writhes in 15 min
Procedure: A further test used to determine the utility of the compounds of the present invention is designated: Drug Effects on Phenylbenzoquinone-induced Writhing in Mice
The objective of this test is to determine the ability of test drugs to inhibit the nociceptive (pain) response of mice injected with a chemical irritant. This test is a primary screen for both peripheral and centrally acting analgesic drugs.
Male Swiss albino mice (15-25 g). The animals are fasted for 18 hours prior to use but have free access to water.
Drug Preparation and Administration:
Drugs are dissolved or suspended according to their solubility in 0.5% Tween 80 in distilled water. They are administered by gastric gavage in a volume of 5 mL/kg. […]
A modification of the method of Siegmund et al, Proc. Soc. Exp. Biol. Med., 95, 729-731 (1957) is used. Groups of 5 mice are dosed with the test compound or vehicle control. […] The number of writhing or abdominal squirming movements made by each mouse during the following 15 min. period is counted. The experiment is repeated with another group of 5 mice and the mean numbr of writhes per mouse for a group of 10 mice is calculated.
Drug treated and vehicle-treated control groups are compared and the percentage protection conferred by the drug is calculated: [formula] where c=mean number of writhes in the control group where t=mean number of writhes in the test drug group

| Structure (SMILES) | Preventative Adjuvant Edema, percent inhibition (rats; 25 mg/kg) | Phenylquinone Writhing in Mice, percent inhibition (mice; 200 mg/kg) | Preventative Adjuvant Edema, percent inhibition (rats; 10 mg/kg) | Phenylquinone Writhing in Mice, percent inhibition (mice; 10 mg/kg) |
| --- | --- | --- | --- | --- |
| C/C=C\c1cccc2c3c([nH]c12)C(CC)(CC(=O)O)OCC3 (stereo not shown) [Example 2, (Z)-1-Ethyl-8-(1-propenyl)-1,3,4,9-tetrahydropyrano[3,4-b]indole-1-acetic Acid] | 73% | 11% |  |  |
| C/C=C\c1c(F)ccc2c3c([nH]c12)C(CC)(CC(=O)O)OCC3 (stereo not shown) [Example 1, (Z)-1-Ethyl-7-fluoro-1,3,4,9-tetrahydro-8-(1-propenyl)pyrano[3,4-b]indole-1-acetic Acid, 1,2-Ethanediamine Salt] |  |  | 69% | 32% |
